{"source": "paper PMC9127750", "about": "“Structure-based design of CDC42 effector interaction inhibitors for the treatment of cancer” (Cell reports, 2022)", "test_system": "WM3248 melanoma cells, 486 antibodies", "test": "Reverse phase protein arrays (RPPA);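 for Cyclin.B1.R.V RPPA level: ratio of treated to vehicle (0 µM) normalized linear protein signal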;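 for Cyclin.E1.R.V RPPA level: ratio of treated to vehicle (0 µM) normalized linear protein signal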;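 for DDB.1.R.V RPPA level: ratio of treated to vehicle (0 µM) normalized linear protein signal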;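 for RPPA ACC1.R.C: ratio of treated to vehicle (0 µM) normalized linear protein signal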;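 for RPPA ASNS.R.V: ratio of treated to vehicle (0 µM) normalized linear protein signal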;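 for RPPA AceCS1.R.V: ratio of treated to vehicle (0 µM) normalized linear protein signal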;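 for RPPA Akt1.R.V: ratio of treated to vehicle (0 µM) normalized linear protein signal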;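 for RPPA Atg5.R.C: ratio of treated to vehicle (0 µM) normalized linear protein signal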;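 for RPPA Bim.R.V: ratio of treated to vehicle (0 µM) normalized linear protein signal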", "assay_type": "cell-based, Human", "settings": "20 uM, Average", "source_text": "Pellets were snap frozen in liquid nitrogen and shipped to MD Anderson Cancer Center core RPPA facility for RPPA analysis (Table S5). Three biological replicates for each sample were generated.\nNomenclatures on the RPPA heatmaps: name_of_antibody.species_of_antibody.status_of_antibody. V - antibody validated; C - validation of antibody in progress; Q - antibody nonspecific; E – under evaluation; antibodies raised in M - mouse, G - goat, R - rabbit, or T - rat.", "data": [{"smiles": "CN(C)c1cccc(Nc2cc(-c3ccccc3)nc(C3CCNCC3)n2)c1", "note": "[ARN22089, N1,N1-dimethyl-N3-(6-phenyl-2-(piperidin-4-yl)pyrimidin-4-yl)benzene-1,3-diamine]", "values": [{"measurement": "Caspase.8.cleaved.R.C RPPA level", "value": 1.025}, {"measurement": "Caveolin.1.R.V RPPA level", "value": 0.842}, {"measurement": "Cdc6.R.V RPPA level", "value": 0.862}, {"measurement": "Cdc42.R.C RPPA level", "value": 1.017}, {"measurement": "Chk1.M.C RPPA level", "value": 0.898}, {"measurement": "Chk1_pS345.R.C RPPA level", "value": 1.107}, {"measurement": "Chk2_pT68.R.C RPPA level", "value": 1.241}, {"measurement": "Complex.II.Subunit.M.V RPPA level", "value": 0.945}, {"measurement": "Coup.TFII.R.C RPPA level", "value": 0.941}, {"measurement": "Cox2.R.C RPPA level", "value": 1.267}, {"measurement": "Cox.IV.R.V RPPA level", "value": 0.997}, {"measurement": "CtIP.R.V RPPA level", "value": 0.950}, {"measurement": "Cyclin.B1.R.V RPPA level", "value": 1.134}, {"measurement": "Cyclin.D3.M.V RPPA level", "value": 0.840}, {"measurement": "Cyclin.E1.R.V RPPA level", "value": 0.959}, {"measurement": "Cyclophilin.F.M.V RPPA level", "value": 0.926}, {"measurement": "D.a.Tubulin.R.V RPPA level", "value": 1.029}, {"measurement": "DAPK1_pS308.M.C RPPA level", "value": 1.208}, {"measurement": "DAPK2.R.C RPPA level", "value": 1.003}, {"measurement": "DDB.1.R.V RPPA level", "value": 0.948}, {"measurement": "DDR1.R.V RPPA level", "value": 1.002}, {"measurement": "DDR1_pY513.R.C RPPA level", "value": 1.125}, {"measurement": "DJ1.R.V RPPA level", "value": 0.948}, {"measurement": "DM.Histone.H3.R.V RPPA level", "value": 2.021}, {"measurement": "DM.K9.Histone.H3.M.V RPPA level", "value": 1.447}, {"measurement": "DNA.Ligase.IV.R.C RPPA level", "value": 0.981}, {"measurement": "DNA_POLG.R.V RPPA level", "value": 1.025}, {"measurement": "RPPA A.Raf.R.V", "value": 1.015}, {"measurement": "RPPA A.Raf_pS299.R.C", "value": 1.034}, {"measurement": "RPPA ACC1.R.C", "value": 0.857}, {"measurement": "RPPA ACLY_pS455.R.V", "value": 1.046}, {"measurement": "RPPA ACSL1.R.V", "value": 0.954}, {"measurement": "RPPA ACVRL1.R.C", "value": 1.002}, {"measurement": "RPPA ADAR1.M.V", "value": 1.149}, {"measurement": "RPPA ALKBH5.R.V", "value": 1.061}, {"measurement": "RPPA AMPK.a2_pS345.R.V", "value": 1.050}, {"measurement": "RPPA AMPKa.R.C", "value": 1.055}, {"measurement": "RPPA AMPKa_pT172.R.C", "value": 2.324}, {"measurement": "RPPA AR.R.V", "value": 1.058}, {"measurement": "RPPA ARID1A.R.C", "value": 1.550}, {"measurement": "RPPA ASNS.R.V", "value": 0.982}, {"measurement": "RPPA ATM.R.V", "value": 0.922}, {"measurement": "RPPA ATM_pS1981.R.V", "value": 1.048}, {"measurement": "RPPA ATP5A.M.C", "value": 1.010}, {"measurement": "RPPA ATR.R.V", "value": 0.999}, {"measurement": "RPPA ATRX.R.C", "value": 1.085}, {"measurement": "RPPA ATR_pS428.R.C", "value": 1.058}, {"measurement": "RPPA AceCS1.R.V", "value": 0.988}, {"measurement": "RPPA Akt1.R.V", "value": 0.884}, {"measurement": "RPPA Akt1_pS473.R.V", "value": 1.015}, {"measurement": "RPPA Akt2.R.V", "value": 0.884}, {"measurement": "RPPA Akt2_pS474.R.C", "value": 1.034}, {"measurement": "RPPA Akt.R.V", "value": 0.924}, {"measurement": "RPPA Akt_pS473.R.V", "value": 0.837}, {"measurement": "RPPA Ambra1_pS52.R.C", "value": 1.060}, {"measurement": "RPPA Annexin.I.M.V", "value": 0.985}, {"measurement": "RPPA Annexin.VII.M.V", "value": 0.970}, {"measurement": "RPPA Atg3.R.V", "value": 0.967}, {"measurement": "RPPA Atg4B.R.C", "value": 0.915}, {"measurement": "RPPA Atg5.R.C", "value": 0.922}, {"measurement": "RPPA Atg7.R.V", "value": 0.846}, {"measurement": "RPPA Aurora.A.R.C", "value": 1.195}, {"measurement": "RPPA Aurora.ABC_pT288_pT232_pT198.R.C", "value": 0.954}, {"measurement": "RPPA Aurora.B.R.V", "value": 1.362}, {"measurement": "RPPA Axl.R.V", "value": 0.993}, {"measurement": "RPPA B7.H3.R.C", "value": 0.942}, {"measurement": "RPPA B7.H4.R.C", "value": 0.993}, {"measurement": "RPPA B.Raf.R.C", "value": 0.957}, {"measurement": "RPPA BAP1.M.V", "value": 0.964}, {"measurement": "RPPA BCL2A1.R.V", "value": 1.025}, {"measurement": "RPPA BMK1.Erk5_pT218_Y220.R.V", "value": 0.950}, {"measurement": "RPPA BRCA1.M.C", "value": 1.124}, {"measurement": "RPPA BRD4.R.V", "value": 1.303}, {"measurement": "RPPA Bak.R.C", "value": 1.033}, {"measurement": "RPPA Bax.R.V", "value": 1.025}, {"measurement": "RPPA Bcl2.R.C", "value": 1.107}, {"measurement": "RPPA Bcl.xL.R.V", "value": 1.064}, {"measurement": "RPPA Beclin.R.C", "value": 0.977}, {"measurement": "RPPA BiP.GRP78.M.C", "value": 0.989}, {"measurement": "RPPA Bid.R.C", "value": 0.971}, {"measurement": "RPPA Bim.R.V", "value": 1.023}, {"measurement": "RPPA DNMT1.R.V", "value": 0.908}, {"measurement": "RPPA DRP1.R.V", "value": 0.953}, {"measurement": "RPPA DUSP4.R.V", "value": 0.738}, {"measurement": "RPPA DUSP6.R.C", "value": 1.449}, {"measurement": "RPPA DYRK1B.R.C", "value": 1.005}, {"measurement": "RPPA Dvl3.R.V", "value": 1.056}, {"measurement": "RPPA E2F1.R.V", "value": 1.239}, {"measurement": "RPPA E.Cadherin.R.V", "value": 0.959}, {"measurement": "RPPA EGFR.R.V", "value": 1.079}, {"measurement": "RPPA EGFR_pY1068.R.C", "value": 0.971}, {"measurement": "RPPA EMA.M.C", "value": 0.929}, {"measurement": "RPPA ENY2.M.C", "value": 0.931}, {"measurement": "RPPA ER.a.R.V", "value": 0.988}, {"measurement": "RPPA ER.a_pS118.R.V", "value": 1.453}, {"measurement": "RPPA ERCC1.R.C", "value": 1.065}, {"measurement": "RPPA ERCC5.R.C", "value": 1.014}, {"measurement": "RPPA ERRalpha.R.V", "value": 1.009}, {"measurement": "RPPA Elk1_pS383.R.C", "value": 1.100}, {"measurement": "RPPA Enolase.1.R.V", "value": 0.939}, {"measurement": "RPPA Enolase.2.R.V", "value": 0.991}, {"measurement": "RPPA EphA2.R.V", "value": 0.816}, {"measurement": "RPPA EphA2_pS897.R.C", "value": 0.726}, {"measurement": "RPPA EphA2_pY588.R.C", "value": 1.016}, {"measurement": "RPPA Erk5.R.V", "value": 0.946}, {"measurement": "RPPA Ets.1.R.V", "value": 1.154}, {"measurement": "RPPA FABP5.R.C", "value": 1.025}, {"measurement": "RPPA FAK.R.C", "value": 1.003}, {"measurement": "RPPA FAK_pY397.R.V", "value": 1.007}, {"measurement": "RPPA FANCD2.R.V", "value": 0.924}, {"measurement": "RPPA FASN.R.V", "value": 0.845}, {"measurement": "RPPA FGF.basic.R.C", "value": 0.992}, {"measurement": "RPPA FOXM1.R.V", "value": 1.057}, {"measurement": "RPPA FOXO3.R.V", "value": 1.019}, {"measurement": "RPPA FRS2.alpha_pY196.R.V", "value": 1.009}, {"measurement": "RPPA FTO.R.V", "value": 0.977}, {"measurement": "RPPA Fibronectin.R.V", "value": 0.989}, {"measurement": "RPPA FoxO3a_pS318_S321.R.C", "value": 1.005}, {"measurement": "RPPA G6PD.R.V", "value": 0.983}, {"measurement": "RPPA GATA6.R.V", "value": 0.981}, {"measurement": "RPPA GCLC.R.C", "value": 0.993}, {"measurement": "RPPA GCLM.R.V", "value": 0.999}, {"measurement": "RPPA GCN5L2.R.V", "value": 1.002}, {"measurement": "RPPA GRB2.R.V", "value": 0.956}, {"measurement": "RPPA GSK.3B.R.C", "value": 0.901}, {"measurement": "RPPA GSK.3a.b.M.V", "value": 0.957}, {"measurement": "RPPA GSK.3a.b_pS21_S9.R.V", "value": 1.052}, {"measurement": "RPPA Gli1.R.C", "value": 0.953}, {"measurement": "RPPA Gli3.R.C", "value": 1.116}, {"measurement": "RPPA Glucocorticoid.Receptor.R.V", "value": 1.130}, {"measurement": "RPPA Glutaminase.R.C", "value": 1.024}, {"measurement": "RPPA Grp75.R.C", "value": 1.172}, {"measurement": "RPPA Gys.R.V", "value": 1.003}, {"measurement": "RPPA Gys_pS641.R.V", "value": 0.884}, {"measurement": "RPPA H2AX_pS139.R.C", "value": 1.441}, {"measurement": "RPPA H2AX_pS140.M.C", "value": 1.148}, {"measurement": "RPPA HER2.M.V", "value": 0.983}, {"measurement": "RPPA HER2_pY1248.R.V", "value": 1.026}, {"measurement": "RPPA HER3.R.V", "value": 0.916}, {"measurement": "RPPA HER3_pY1289.R.C", "value": 1.009}, {"measurement": "RPPA HES1.R.V", "value": 1.049}, {"measurement": "RPPA Heregulin.R.V", "value": 1.013}, {"measurement": "RPPA X4E.BP1.R.V", "value": 1.246}, {"measurement": "RPPA X4E.BP1_pS65.R.V", "value": 0.859}, {"measurement": "RPPA X4E.BP1_pT37_T46.R.V", "value": 0.868}, {"measurement": "RPPA X14.3.3.zeta.R.V", "value": 0.922}, {"measurement": "RPPA X14.3.3βR.V", "value": 1.078}, {"measurement": "RPPA X14.3.3εM.C", "value": 0.929}, {"measurement": "RPPA X53BP1.R.V", "value": 1.047}, {"measurement": "RPPA b.Actin.R.C", "value": 1.098}, {"measurement": "RPPA b.Catenin.R.V", "value": 0.957}, {"measurement": "RPPA c.Abl.R.V", "value": 1.129}, {"measurement": "RPPA c.Abl_pY412.R.C", "value": 1.034}, {"measurement": "RPPA c.IAP2.R.C", "value": 1.063}, {"measurement": "RPPA eEF2K.R.V", "value": 1.262}, {"measurement": "RPPA eIF4E.R.V", "value": 1.164}, {"measurement": "RPPA eIF4E_pS209.R.V", "value": 1.101}, {"measurement": "RPPA eIF4G.R.C", "value": 1.116}, {"measurement": "RPPA level HLA.DQA1.R.V", "value": 1.019}, {"measurement": "RPPA level HLA.DR.DP.DQ.DX.R.C", "value": 1.117}, {"measurement": "RPPA level HNRNPK.R.V", "value": 1.028}, {"measurement": "RPPA level HSP27.M.C", "value": 0.864}, {"measurement": "RPPA level HSP60.R.V", "value": 1.000}]}]}
